Reference: patent publication US20110020312A1, “METHODS FOR TREATMENT OF METABOLIC DISORDERS USING EPIMETABOLIC SHIFTERS, MULTIDIMENSIONAL INTRACELLULAR MOLECULES, OR ENVIRONMENTAL INFLUENCERS” (priority 2009, published 2011)

How the values were obtained:
[1] = tested on: Hif1 alpha; assay: Western blot, Hif1 alpha levels; assay type: cell-based, human; conditions: for Hif1 alpha Lower Band Normalized Volume: HASMC
Experimental: The Actin blots were stripped by incubating for 30 minutes with methanol, followed by two 10 minute washes with TBS-T, then 30 minutes of incubation with Stripping buffer at 50 deg C., and followed by two washes with 100 ml or more of TBS-T for 30′ each. The blots were scanned in laser scanner to check for complete stripping. The blots were activated with methanol for 5 seconds, washed with water for 5 minutes, and TBST for 15 minutes. The blots were blocked for 1 hour with 5% blocking reagent in TBS-T at room temperature and then washed 3 times with TBS-T (1×-15′; 2×5′ each) and probed with the primary antibody for Hif 1 alpha, Caspase 3 or PDHB in 5% BSA (at 1:200 by incubation overnight at 4 deg C. with gentle shaking. The primary antibody for Hif 1 alpha (Abcam ab2185; antirabbit) was at 1:500 dilution in 5% BSA. The primary antibody for Caspase 3 (Santacruz sc7272; antirabbit) was at 1:200 dilution in 5% BSA. The primary antibody for Pyruvate Dehydrogenase beta (PDHB) (Novus Biologicals H00005162-M03; antimouse) was at 1:500 dilution in 5% BSA. After incubation with primary antibodies, the membranes were washed 3 times with TBS-T (1×-15′; 2×5′ each) and probed with the secondary antibody (PDHB antimouse; Hif 1a and Caspase 3 antirabbit; 1:10,000 dilution) for 1 h at room temperature. After 1 h of incubation with secondary antibodies, the blots were washed 3 times with TBS-T (1×-15′; 2×5′ each) and then incubated with ECF reagent for 5 minutes and then each blot scanned with 5100 Fuji Laser scanner at 25 uM resolution, 16 bit, green laser, at 400V and at 500 V.
The above blots were stripped by incubating for 30 minutes with methanol, followed by two 10 minute washes with TBS-T, then 30 minutes of incubation with Stripping buffer at 50 deg C., and followed by two washes with 100 ml or more of TBS-T for 30′ each. The blots were activated with methanol for 5 seconds, washed with water for 5 minutes, and TBST for 15 minutes. The blots are blocked for 1 hour with 5% blocking reagent in TBS-T at room temperature and then washed 3 times with TBS-T (1×-15′; 2×5′ each) and probed with the primary antibody for Transaldolase or Hifla in 5% BSA by incubation overnight at 4 deg C. with gentle shaking. The primary antibody for Transaldolase (Abcam ab67467; antimouse) was at 1:500 dilution. The primary antibody for Hifla (Abcam ab2185; antirabbit) was at 1:500 dilution. After incubation with primary antibodies, the membranes were washed 3 times with TBS-T (1×-15′; 2×5′ each) and probed with the secondary antibody (antimouse or antirabbit; 1:10,000 dilution) for 1 h on the orbital tilting shaker at room temperature. After 1 h of incubation with secondary antibodies, the blots were washed 3 times with TBS-T (1×-15′; 2×5′ each) and then incubated with ECF reagent for 5 minutes and then each blot scanned with 5100 Fuji Laser scanner at 25 uM resolution, 16 bit, green laser, at 400 & 500V.

[2] = tested on: Succinate Dehydrogenase (SDH) Subunit B; assay: Western blot, Succinate Dehydrogenase B in mitochondrial preparations; assay type: cell-based; conditions: for Succinate Dehydrogenase B Average Normalized Volume: NCIE0808 Mitopreps
Experimental: The above blots were stripped by incubating for 30 minutes with methanol, followed by two 10 minute washes with TBS-T, then 30 minutes of incubation with Stripping buffer at 50 deg C., and followed by two washes with 100 ml or more of TBS-T for 30′ each. The blots were scanned in laser scanner to check for complete stripping. The blots were activated with methanol for 5 seconds, washed with water for 5 minutes, and TBST for 15 minutes. The blots were blocked for 1 hour with 5% blocking reagent in TBS-T at room temperature and then washed 3 times with TBS-T (1×-15′; 2×5′ each) and probed with the primary antibody for PKM2, SDHB or SDHC in 5% BSA in TBS-T by incubation overnight at 4 deg C. with gentle shaking. The primary antibody for SDHC (ABNOVA H00006391-MO2; antimouse) was at 1:500 dilution. The primary antibody for SDHB was from Abcam ab4714-200; antimouse; at 1:1000 dilution. The primary antibody for Pyruvate Kinase M2 (PKM2) was from Novus Biologicals H00005315-D0IP; antirabbit; at 1:500 dilution. After incubation with primary antibodies, the membranes were washed 3 times with TBS-T (1×-15′; 2×5′ each) and probed with the secondary antibody (SDHB & C antimouse; and PKM2 antirabbit; 1:10,000 dilution) for 1 h on the orbital tilting shaker at room temperature. After 1 h of incubation, the blots were washed 3 times with TBS-T (1×-15′; 2×5′ each) and incubated with ECF reagent for 5 minutes and then each blot scanned with 5100 Fuji Laser scanner at 25 uM resolution, 16 bit, green laser, at 400V and at 500 V.

[3] = tested on: PaCa2 cells; assay: Nexin assay for apoptosis (Annexin-V-PE/7-AAD flow cytometry), 24 h Q10; assay type: cell-based; conditions: 50 μM Q10 and 100 μM Q10, 24 hours
From the text: The 7AAD dye will enter into cells with permeabilized cell membranes; primarily those cells that are in late apoptosis. Annexin-V-PE is a dye that binds to Phosphotidyl serine, which is exposed on the outer surface of the plasma membrane in early apoptotic cells. The Nexin reagent thus can be used to differentiate between different populations of apoptotic cells in a flow cytometer.

[4] = mitochondrial preparations of cancer cells

In the case of `COC1=C(OC)C(=O)C(C/C=C(\C)CC/C=C(\C)CC/C=C(\C)CC/C=C(\C)CC/C=C(\C)CC/C=C(\C)CC/C=C(\C)CC/C=C(\C)CC/C=C(\C)CCC=C(C)C)=C(C)C1=O` [Q10, Coenzyme Q10], the “Hif1 alpha Lower Band Normalized Volume” value ([1]; 5g48-50) is reported as 21664, the “Hif1 alpha Lower Band Normalized Volume” value ([1]; 5g48-100) is reported as 19540 and the “Hif1 alpha Lower Band Normalized Volume” value ([1]; 22G24-50) is reported as 18486. The “Hif1 alpha Lower Band Normalized Volume” value ([1]; 22G24-100) was 17919, the “Hif1 alpha Lower Band Normalized Volume” value ([1]; 22G48-50) was 17496 and the “Hif1 alpha Lower Band Normalized Volume” value ([1]; 22G48-100) was 23111. For the same compound, the “Hif1 alpha Upper Band Normalized Volume” value ([1]; HepG2, 5g24-50) was 8998, the “Hif1 alpha Upper Band Normalized Volume” value ([1]; HepG2, 5g24-100) was 9315 and the “Hif1 alpha Upper Band Normalized Volume” value ([1]; HepG2, 5g48-50) was 8601. For the same compound, the “Hif1 alpha Upper Band Normalized Volume” value ([1]; HepG2, 5g48-100) was 10192, the “Hif1 alpha Upper Band Normalized Volume” value ([1]; HepG2, 22G24-50) was 14089 and the “Hif1 alpha Upper Band Normalized Volume” value ([1]; HepG2, 22G24-100) was 8530. For the same compound, the “Hif1 alpha Upper Band Normalized Volume” value ([1]; HepG2, 22G48-50) was 9416, the “Hif1 alpha Upper Band Normalized Volume” value ([1]; HepG2, 22G48-100) was 5608 and the “Hif1 alpha protein levels” value [1, 4] was “decreased”. For the same compound, the Hif1a lower band ([1]; whole cell lysates of normal cells) was “decrease”, the “Succinate Dehydrogenase B Average Normalized Volume” value ([2]; 50 uM, 6 h) was 1077 and the “Succinate Dehydrogenase B Average Normalized Volume” value ([2]; 100 uM, 3 h) was 964. The “Succinate Dehydrogenase B Average Normalized Volume” value ([2]; 100 uM, 6 h) was 934, the “SDH protein levels in the mitochondrion” value [2, 4] was “increase” and the “increase in both early and late apoptotic cells” value [3] was 5-10 % of gated cells.
